Data as given in patent US20150119267A1, “INHIBITION OF COLONY STIMULATING FACTOR-1 RECEPTOR SIGNALING FOR THE TREATMENT OF BRAIN CANCER” (SLOAN-KETTERING INSTITUTE FOR CANCER RESEARCH, priority 2012, published 2015).
“Also recorded” adds a separate entry of the source.

Key:
[1] = tested on: CSF1-dependent cell proliferation; experiment: CSF1-dependent cell proliferation; assay type: cell-based; settings: read-out: inhibits CSF1-dependent cell proliferation
>200 kinases = experiment: biochemical kinase panel; settings: read-out: biochemical IC50 values for >200 kinases tested; except cKIT and PDGFRβ; data not shown
[2] = tested on: primary bone marrow-derived macrophages (BMDMs); experiment: MTT assay, primary BMDMs; assay type: cell-based, mouse; settings: wild-type C57BL/6 BMDMs in culture, 67 nM
Procedure: (§1) Cell growth rate was determined using the MTT cell proliferation kit (Roche). […] Media was changed every 48 hours. BMDM and CRL-2467 cells were supplemented with 10 ng/ml and 30 ng/ml recombinant mouse CSF-1 respectively unless otherwise indicated. Ten μl of MTT labeling reagent was added to each well and then incubated for 4 hours at 37° C., followed by the addition of 100 μl MTT solubilization reagent overnight. The mixture was gently resuspended and absorbance was measured at 595 nm and 750 nm on a SPECTRAMAX 340 pc plate reader (Molecular Devices).

PDG tumor cell lines = experiment: MTT assay, PDG tumor cell lines; assay type: cell-based, mouse; settings: concentrations up to 6700 nM
Procedure: (§2) For neurosphere formation the cell pellet was resuspended in neurosphere media consisting of mouse NSC Basal Media, NSC proliferation supplements, 10 ng/ml EGF, 20 ng/ml basic-FGF and 1 mg/ml Heparin (Stem Cell Technologies). Fresh media was added every 72 hours for 2 weeks. Primary neurospheres were collected, mechanically disaggregated to a single cell suspension and propagated by serial passaging. To generate glioma cell lines, secondary neurospheres were dissociated to single cell suspensions and cultivated in DMEM+10% FBS as a monolayer (10). Multiple glioma cell lines were derived from independent mice, denoted GBM1-4 herein. Glioma cells were infected with a pBabe-H2B-mCherry construct as described previously (11).
as §1

[3] = tested on: secondary neurospheres from PDG tumors; experiment: Secondary neurosphere formation assay; assay type: cell-based, mouse; settings: concentrations up to 6700 nM
Procedure: as §2
Primary neurospheres were disaggregated to a single cell suspension and 5×10^3 cells were plated in a 6 well plate in neurosphere media in the presence of the CSF-1R inhibitor or DMSO as vehicle. Media was changed every 48 hours. Secondary neurosphere formation was assayed by counting the number of neurospheres obtained after 2 weeks.

[4] = BLZ945 pharmacokinetics, blood-brain barrier; assay type: in vivo, mouse; settings: single dose 200 mg/kg oral gavage
Procedure: The CSF-1R inhibitor was obtained from the Novartis Institutes for Biomedical Research (Emeryville, Calif.). The drug was formulated in 20% captisol at a concentration of 12.5 mg/ml. The vehicle control, 20% captisol, was processed in the same manner. […] To determine if the drug was able to cross the blood-brain barrier, tumor-bearing mice were treated with a single dose of the CSF-1R inhibitor and sacrificed at different time points post-treatment. Plasma, and the left (contralateral) and right (tumor-bearing) hemispheres of the brain were snap frozen in liquid nitrogen for subsequent analysis of CSF-1R inhibitor concentrations in the tissue. For long-term survival studies, dosing begun at 17 days/2.5 weeks post-injection of RCAS-PDGF-B-HA. For the fixed time-point studies, mice underwent MRI scans at 4-5 weeks post-injection of RCAS-PDGF-B-HA, as previously described (5). To determine tumor volume, regions of interest (ROI) were circumscribed on T2 weighted images and their corresponding area in mm^2 was multiplied by the slice height of 0.7 mm. The total tumor volume is the sum of the ROI volume in each slice, and the volume for the first and last slice in which the tumor appears is halved to approximate the volume of a trapezoid. When tumor volume was in the range of 4.5-40 mm^3, animals were randomly assigned to treatment groups. […]

Mrc1 = Mrc1 expression in primary glioma cultures (flow cytometry); assay type: cell-based, mouse; settings: CD45+CD11b+ cells
Procedure: Macrodissected tumors were digested to a single cell suspension by incubation for 8-12 minutes at 37° C. as described above. The cell suspension was washed with Neural Stem Cell (NSC) Basal Media (Stem Cell Technologies), and centrifuged at low speed (750 rpm Sorvall Legend RT), to remove debris. To derive mouse primary glioma cultures, the cell pellet was resuspended in DMEM containing 10% FBS (Gibco). These primary cultures were used at early passage (P2-P3), and contain a mixture of different cell types found in gliomas including tumor cells, macrophages, and astrocytes as determined by immunofluorescence staining. Primary glioma cultures were grown for 24 hours on poly-L-lysine coated coverslips (BD Biocoat). Cells were then fixed with 4% PFA in 0.1M phosphate buffer overnight at 4° C., permeabilized with 0.1% Triton-X for 5 minutes and blocked with 0.5% PNB for at least one hour. […]
For mouse primary glioma cultures (containing a mixed population of tumor cells, TAMs, astrocytes etc.; see FIG. 15), 1×10^6 cells were cultivated in DMEM+10% FBS in the presence of the CSF-1R inhibitor or DMSO as vehicle (n=6 independently isolated cultures). […] Cells were counted and incubated with 1 μl of Fc Block (BD Pharmingen) per 10^6 cells for at least 15 minutes at 4° C. […]

SMILES: CNC(=O)c1cc(Oc2ccc3nc(N[C@@H]4CCCC[C@H]4O)sc3c2)ccn1 [BLZ945]
- IC50 [1]: 67 nM
- IC50 (>200 kinases): > 10000 nM
- macrophage (BMDM) survival / viability [2]: significantly decreases the viability; also recorded: blocks macrophage survival
- proliferation of PDG tumor cell lines (PDG tumor cell lines): no effect
- tumor neurosphere formation (number or size of secondary neurospheres) [3]: no effect; also recorded: does not affect the number or size
- blood-brain barrier crossing [4]: able to effectively cross the blood-brain barrier
- concentration in contralateral non-tumor bearing hemisphere versus tumor ([4]; all time points tested): comparable to the level achieved in the tumor
- Mrc1 in primary glioma cultures containing TAMs (Mrc1): decreased
